Tests used:
[1] = tested on: CmSTC1; test: malachite green phosphate release assay, coupled to yeast pyrophosphatase; type: biochemical, Cubamyces menziesii; conditions: 5 mM MgCl2, Tris-HCl/MES/CAPS buffer, pH 7.8; FDP range 3.125 to 50 or 75 μM
[2] = tested on: CmSTC3; test: as above; type: biochemical, Cubamyces menziesii; conditions: 5 mM MgCl2, Tris-HCl/MES/CAPS buffer, pH 7.8; FDP range 3.125 to 50 or 75 μM

CC(C)=CCC/C(C)=C/CC/C(C)=C/COP(=O)(O)OP(=O)(O)O [FDP]
Km [1]: 68.2 µM
Km [2]: 19.9 µM
